Measured values: US6455242B1, “Color photographic element containing speed improving compound” (Eastman Kodak Company, priority 1998, dated 2002)

Assay: Permanent solvent physical constant beta
Assay type: physicochemical
Conditions: permanent solvent constant as defined by Kamlet et al.
Excerpt: The materials of the invention can be added to a mixture containing silver halide before coating or, more suitably, be mixed with the silver halide just prior to or during coating. In either case, additional components like couplers, […], surfactants, hardeners and other materials that are typically present in such solutions may also be present at the same time. The materials of the invention are not water-soluble and cannot be added directly to the solution. They may be added directly if dissolved in an organic water miscible solution such as methanol, acetone or the like or more preferably as a dispersion. A dispersion incorporates the material in a stable, finely divided state in a hydrophobic organic solvent (often referred to as a coupler solvent or permanent solvent) that is stabilized by suitable surfactants and surface active agents usually in combination with a binder or matrix such as gelatin. The dispersion may contain one or more permanent solvents that dissolve the material and maintain it in a liquid state. Some examples of suitable permanent solvents are tricresylphosphate, N,N-diethyllauramide, N,N-dibutyllauramide, p-dodecylphenol, dibutylphthalate, di-n-butyl sebacate, N-n-butylacetanilide, 9-octadecen-1-ol, ortho-methylphenyl benzoate, trioctylamine and 2-ethylhexylphosphate. Permanent solvents can also be described in terms of physical constants such as alpha, beta and pi* as defined by M. J. Kamlet, J-L. M. Abboud, M. H. Abraham and R. W. Taft, J. Org Chem, 48, 2877(1983). The preferred permanent solvents used with the materials of the invention are those with ClogP of 5.0 or greater and beta values of 0.4 or greater or more preferably, beta values of 0.5 or greater. Preferred classes of solvents are carbonamides, phosphates, alcohols and esters. When a solvent is present, it is preferred that the weight ratio of compound to solvent be at least 1 to 0.5, or most preferably, at least 1 to 1. […]

| beta | Structure (SMILES) |
| --- | --- |
| 0.71 | CCCCCCCC/C=C\CCCCCCCCO [(Z)-9-octadecen-1-ol] |
| 0.93 | CCCCCCCCCCCC(=O)N(CCCC)CCCC [N,N-dibutyllauramide] |
| 0.43 | Cc1ccccc1OC(=O)c1ccccc1 [ortho-methylphenyl benzoate] |
